Results from patent publication EP4810052A2, “HCRHR2 SELECTIVE POLYPEPTIDES” (Gubra A/S, priority 2023, dated 2026).
Where two headings read alike, the source gives them in different places. Starred links: 1 amine or outer side, 2 acyl side, 3 side chain; linkers in the order of their positions; H or OH if unused. Non-standard residues stand in square brackets, D forms with d. Residues, ends and D or L forms follow the SMILES beside them. Groups on a side chain read outwards from the residue. *: point of attachment. C20 diacid = O=C(O)CCCCCCCCCCCCCCCCCCC(=O)*; γGlu = O=C(O)[C@H](CCC(=O)[*:2])N[*:1]; Hyp = O=C(O)[C@@H]1C[C@@H](O)CN1; Nle = CCCC[C@H](N)C(=O)O; AEEA = NCCOCCOCC(=O)O

Assays:
[1] = target: T1, hCRHR2 (Homo sapiens, UniProt Q13324); assay: HTRF cAMP assay, determination of hCRHR2 potency (peptide libraries 5 conc., purified peptides 11 conc.); type: cell-based
T1 sequence (Q13324 1-411): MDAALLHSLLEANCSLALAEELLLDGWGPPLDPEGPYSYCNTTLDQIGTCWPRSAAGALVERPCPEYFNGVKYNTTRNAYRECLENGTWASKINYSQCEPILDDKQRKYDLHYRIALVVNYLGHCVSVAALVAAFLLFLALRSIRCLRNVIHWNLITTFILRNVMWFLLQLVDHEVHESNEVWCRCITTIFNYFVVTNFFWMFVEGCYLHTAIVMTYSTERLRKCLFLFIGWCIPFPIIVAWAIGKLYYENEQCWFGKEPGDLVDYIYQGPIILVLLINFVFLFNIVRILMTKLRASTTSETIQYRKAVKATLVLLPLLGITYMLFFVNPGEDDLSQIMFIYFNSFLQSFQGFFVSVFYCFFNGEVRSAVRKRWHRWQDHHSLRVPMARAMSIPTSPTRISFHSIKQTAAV
How it was run: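 CHO-K1 cells stably expressing human CRHR2, thawed from frozen stocks just before use and run in suspension; cAMP measured by competitive HTRF immunoassay (cryptate anti-cAMP, d2-cAMP). Agonist peptides tested at 5 (libraries) or 11 (purified) concentrations; EC50 from sigmoid variable-slope nonlinear regression.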

[2] = target: T2, hCRHR1 (Homo sapiens, UniProt P34998); assay: HTRF cAMP assay, determination of hCRHR1 potency (peptide libraries 5 conc., purified peptides 11 conc.); type: cell-based
T2 sequence (P34998 24-415): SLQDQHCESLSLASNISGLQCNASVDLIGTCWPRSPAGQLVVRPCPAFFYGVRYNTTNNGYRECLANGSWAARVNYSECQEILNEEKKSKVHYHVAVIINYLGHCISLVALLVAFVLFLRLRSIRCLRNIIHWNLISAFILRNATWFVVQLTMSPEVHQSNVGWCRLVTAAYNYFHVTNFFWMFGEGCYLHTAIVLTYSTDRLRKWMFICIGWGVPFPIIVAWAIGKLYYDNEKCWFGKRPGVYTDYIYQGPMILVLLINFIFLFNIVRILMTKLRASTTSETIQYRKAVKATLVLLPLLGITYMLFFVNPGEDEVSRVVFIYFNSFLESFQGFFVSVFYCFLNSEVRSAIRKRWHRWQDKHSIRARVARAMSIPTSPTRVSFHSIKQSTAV
How it was run: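 CHO-K1 cells stably expressing human CRHR1, thawed from frozen stocks just before use, were stimulated in suspension with agonist peptides. cAMP was measured by HTRF competitive immunoassay (cryptate anti-cAMP antibody vs d2-cAMP).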

[3] = library peptides, matched molecular pairs L vs Nle in position X^38, read-out: Potency hCRHR2 pEC50 (converted)
[4] = library peptides, matched molecular pairs L vs Nle in position X^38, read-out: Potency hCRHR1 pEC50 (converted)
[5] = Table 3, matched molecular pairs X^38 L vs Nle, peptide library of Example 4, read-out: hCRHR2 pEC50 (converted)
[6] = Table 3, matched molecular pairs X^38 L vs Nle, peptide library of Example 4, read-out: hCRHR1 pEC50 (converted)

EC50 [1, 3]	EC50 [2, 4]	EC50 [1, 5]	EC50 [2, 6]	Selectivity ratio (hCRHR1/ hCRHR2) ([1]; Table 5)	EC50 ([1]; Table 5, purified peptides, read-out: hCRHR2 EC50)	EC50 ([2]; Table 5, purified peptides, read-out: hCRHR1 EC50)	SMILES
1 nM	25.1 nM	–	–	–	–	–	CC[C@H](C)[C@H](N)C(=O)N[C@H](C(=O)N[C@@H](CC(C)C)C(=O)N[C@@H](CO)C(=O)N[C@@H](CC(C)C)C(=O)N[C@@H](CC(=O)O)C(=O)N[C@H](C(=O)N1C[C@H](O)C[C@H]1C(=O)N[C@H](C(=O)NCC(=O)N[C@@H](CC(C)C)C(=O)N[C@@H](CC(C)C)C(=O)N[C@@H](CCC(N)=O)C(=O)N[C@H](C(=O)N[C@@H](CC(C)C)C(=O)N[C@@H](CC(C)C)C(=O)N[C@@H](CCC(=O)O)C(=O)N[C@@H](CCC(N)=O)C(=O)N[C@@H](C)C(=O)N[C@@H](CCCNC(=N)N)C(=O)N[C@@H](C)C(=O)N[C@@H](CCCNC(=N)N)C(=O)N[C@H](C(=O)N[C@@H](C)C(=O)N[C@@H](CCCNC(=N)N)C(=O)N[C@@H](CCC(=O)O)C(=O)N[C@@H](CCC(N)=O)C(=O)N[C@@H](C)C(=O)N[C@@H](CCCCNC(=O)COCCOCCNC(=O)COCCOCCNC(=O)CC[C@H](NC(=O)CC[C@H](NC(=O)CCCCCCCCCCCCCCCCCCC(=O)O)C(=O)O)C(=O)O)C(=O)N[C@H](C(=O)N[C@@H](CC(N)=O)C(=O)N[C@@H](C)C(=O)N[C@@H](CCC(=O)O)C(=O)N[C@H](C(=O)N[C@@H](CC(C)C)C(=O)N[C@@H](C)C(=O)N[C@@H](CCC(=O)O)C(=O)N[C@H](C(N)=O)C(C)C)[C@@H](C)CC)[C@@H](C)O)C(C)C)[C@@H](C)CC)[C@@H](C)CC)C(C)C)C(C)C [compound 84] (H-IVLSLDV[Hyp]IGLLQILLEQARARVAREQAK([AEEA-AEEA-γGlu-γGlu-C20 diacid])TNAEILAEV-NH2)
0.251 nM	2 nM	–	–	–	–	–	CCCC[C@H](NC(=O)[C@@H](NC(=O)[C@H](CCC(=O)O)NC(=O)[C@H](C)NC(=O)[C@H](CC(N)=O)NC(=O)[C@@H](NC(=O)[C@H](CCCCNC(=O)COCCOCCNC(=O)COCCOCCNC(=O)CC[C@H](NC(=O)CC[C@H](NC(=O)CCCCCCCCCCCCCCCCCCC(=O)O)C(=O)O)C(=O)O)NC(=O)[C@H](C)NC(=O)[C@H](CCC(N)=O)NC(=O)[C@H](CCC(=O)O)NC(=O)[C@H](CCCNC(=N)N)NC(=O)[C@H](C)NC(=O)[C@@H](NC(=O)[C@H](CCCNC(=N)N)NC(=O)[C@H](C)NC(=O)[C@H](CCCNC(=N)N)NC(=O)[C@H](C)NC(=O)[C@H](CCC(N)=O)NC(=O)[C@H](CCC(=O)O)NC(=O)[C@H](CC(C)C)NC(=O)[C@H](CC(C)C)NC(=O)[C@@H](NC(=O)[C@H](CCC(N)=O)NC(=O)[C@H](CC(C)C)NC(=O)[C@H](CC(C)C)NC(=O)CNC(=O)[C@@H](NC(=O)[C@@H]1C[C@@H](O)CN1C(=O)[C@@H](NC(=O)[C@H](CC(=O)O)NC(=O)[C@H](CC(C)C)NC(=O)[C@H](CO)NC(=O)[C@H](CC(C)C)NC(=O)[C@@H](NC(=O)[C@@H](N)[C@@H](C)CC)C(C)C)C(C)C)[C@@H](C)CC)[C@@H](C)CC)C(C)C)[C@@H](C)O)[C@@H](C)CC)C(=O)N[C@@H](C)C(=O)N[C@@H](CCC(=O)O)C(=O)N[C@H](C(N)=O)C(C)C [compound 85] (H-IVLSLDV[Hyp]IGLLQILLEQARARVAREQAK([AEEA-AEEA-γGlu-γGlu-C20 diacid])TNAEI[Nle]AEV-NH2)
–	–	0.501 nM	63100 nM	–	–	–	CC[C@H](C)[C@H](N)C(=O)N[C@H](C(=O)N[C@@H](CC(C)C)C(=O)N[C@@H](CO)C(=O)N[C@@H](CC(C)C)C(=O)N[C@@H](CC(=O)O)C(=O)N[C@H](C(=O)N1CCC[C@H]1C(=O)N[C@H](C(=O)NCC(=O)N[C@@H](CC(C)C)C(=O)N[C@@H](CC(C)C)C(=O)N[C@@H](CCC(N)=O)C(=O)N[C@H](C(=O)N[C@@H](CC(C)C)C(=O)N[C@@H](CC(C)C)C(=O)N[C@@H](CCC(=O)O)C(=O)N[C@@H](CCC(N)=O)C(=O)N[C@@H](C)C(=O)N[C@@H](CCCNC(=N)N)C(=O)N[C@@H](C)C(=O)N[C@@H](CCC(N)=O)C(=O)N[C@@H](C)C(=O)N[C@@H](C)C(=O)N[C@@H](CCCNC(=N)N)C(=O)N[C@@H](CCC(=O)O)C(=O)N[C@@H](CCC(N)=O)C(=O)N[C@@H](C)C(=O)N[C@@H](CCCCNC(=O)COCCOCCNC(=O)COCCOCCNC(=O)CC[C@H](NC(=O)CC[C@H](NC(=O)CCCCCCCCCCCCCCCCCCC(=O)O)C(=O)O)C(=O)O)C(=O)N[C@H](C(=O)N[C@@H](CC(N)=O)C(=O)N[C@@H](C)C(=O)N[C@@H](CCC(=O)O)C(=O)N[C@H](C(=O)N[C@@H](CC(C)C)C(=O)N[C@@H](C)C(=O)N[C@@H](CCC(=O)O)C(=O)N[C@H](C(N)=O)[C@@H](C)CC)[C@@H](C)CC)[C@@H](C)O)[C@@H](C)CC)[C@@H](C)CC)C(C)C)C(C)C [SEQ ID NO: 43] (H-IVLSLDVPIGLLQILLEQARAQAAREQAK([AEEA-AEEA-γGlu-γGlu-C20 diacid])TNAEILAEI-NH2)
–	–	0.158 nM	1260 nM	–	–	–	CCCC[C@H](NC(=O)[C@@H](NC(=O)[C@H](CCC(=O)O)NC(=O)[C@H](C)NC(=O)[C@H](CC(N)=O)NC(=O)[C@@H](NC(=O)[C@H](CCCCNC(=O)COCCOCCNC(=O)COCCOCCNC(=O)CC[C@H](NC(=O)CC[C@H](NC(=O)CCCCCCCCCCCCCCCCCCC(=O)O)C(=O)O)C(=O)O)NC(=O)[C@H](C)NC(=O)[C@H](CCC(N)=O)NC(=O)[C@H](CCC(N)=O)NC(=O)[C@H](CCCNC(=N)N)NC(=O)[C@H](C)NC(=O)[C@H](C)NC(=O)[C@H](CCCNC(=N)N)NC(=O)[C@H](C)NC(=O)[C@H](CCCNC(=N)N)NC(=O)[C@H](C)NC(=O)[C@H](CCC(N)=O)NC(=O)[C@H](CCC(=O)O)NC(=O)[C@H](CC(C)C)NC(=O)[C@H](CC(C)C)NC(=O)[C@@H](NC(=O)[C@H](CCC(N)=O)NC(=O)[C@H](CC(C)C)NC(=O)[C@H](CC(C)C)NC(=O)CNC(=O)[C@@H](NC(=O)[C@@H]1CCCN1C(=O)[C@@H](NC(=O)[C@H](CC(=O)O)NC(=O)[C@H](CC(C)C)NC(=O)[C@H](CO)NC(=O)[C@H](CC(C)C)NC(=O)[C@@H](NC(=O)[C@@H](N)[C@@H](C)CC)C(C)C)C(C)C)[C@@H](C)CC)[C@@H](C)CC)[C@@H](C)O)[C@@H](C)CC)C(=O)N[C@@H](C)C(=O)N[C@@H](CCC(=O)O)C(=O)N[C@H](C(N)=O)[C@@H](C)CC [SEQ ID NO: 28] (H-IVLSLDVPIGLLQILLEQARARAARQQAK([AEEA-AEEA-γGlu-γGlu-C20 diacid])TNAEI[Nle]AEI-NH2)
0.398 nM	398000 nM	–	–	>9091	0.55 nM	> 5000 nM	CCCC[C@H](NC(=O)[C@@H](NC(=O)[C@H](CCC(=O)O)NC(=O)[C@H](C)NC(=O)[C@H](CC(N)=O)NC(=O)[C@@H](NC(=O)[C@H](CCCCNC(=O)COCCOCCNC(=O)COCCOCCNC(=O)CC[C@H](NC(=O)CC[C@H](NC(=O)CCCCCCCCCCCCCCCCCCC(=O)O)C(=O)O)C(=O)O)NC(=O)[C@H](C)NC(=O)[C@H](CCC(N)=O)NC(=O)[C@H](CCC(=O)O)NC(=O)[C@H](CCCNC(=N)N)NC(=O)[C@H](C)NC(=O)[C@H](C)NC(=O)[C@H](CCCNC(=N)N)NC(=O)[C@H](C)NC(=O)[C@H](CCCNC(=N)N)NC(=O)[C@H](C)NC(=O)[C@H](CCC(N)=O)NC(=O)[C@H](CO)NC(=O)[C@H](CC(C)C)NC(=O)[C@H](CC(C)C)NC(=O)[C@@H](NC(=O)[C@H](CCC(N)=O)NC(=O)[C@H](CC(C)C)NC(=O)[C@H](CC(C)C)NC(=O)CNC(=O)[C@@H](NC(=O)[C@@H]1CCCN1C(=O)[C@@H](NC(=O)[C@H](CC(=O)O)NC(=O)[C@H](CC(C)C)NC(=O)[C@H](CO)NC(=O)[C@H](CC(C)C)NC(=O)[C@@H](NC(=O)[C@@H](N)[C@@H](C)CC)C(C)C)C(C)C)[C@@H](C)CC)[C@@H](C)CC)[C@@H](C)O)[C@@H](C)CC)C(=O)N[C@@H](C)C(=O)N[C@@H](CCC(=O)O)C(=O)N[C@H](C(N)=O)[C@@H](C)CC [compound 89] (H-IVLSLDVPIGLLQILLSQARARAAREQAK([AEEA-AEEA-γGlu-γGlu-C20 diacid])TNAEI[Nle]AEI-NH2)
